Data: patent EP0433759A1, “4-Substituted alkyl carbapenem antibiotics” (Bristol-Myers Squibb Company, priority 1989, dated 1991)
Values after ≈ are worked out from the molar mass of the structure shown. Where a name gives a salt, the structure may show the parent alone.

Tests used:
[1] = test system: Escherichia coli, A15119; assay: In vitro antibacterial activity (MIC), serial 2-fold dilution; format: cell-based; settings: Escherichia coli A15119; Mueller-Hinton; 37°C, 17 h; read-out: Antibacterial Activity MIC E. coli
Procedure: (§1) In vitro antibacterial activity was determined by serial 2-fold dilution of the compound in Mueller-Hinton agar and inoculation of the agar surface or broth with an appropriately diluted 18-24 h broth culture.

[2] = test system: Pseudomonas aeruginosa, A9843; assay: as above; format: cell-based; settings: Pseudomonas aeruginosa A9843; Mueller-Hinton; 37°C, 17 h; read-out: Antibacterial Activity MIC P. aer.
Procedure: as §1

[3] = test system: Streptococcus pneumoniae, A9585; assay: as above; format: cell-based; settings: Streptococcus pneumoniae A9585; Mueller-Hinton; 37°C, 17 h; read-out: Antibacterial Activity MIC S. pn.
Procedure: as §1

[4] = Chemical stability in aqueous solution (half-life); format: physicochemical; settings: 37°C, 10^-4 M, pH 7.4, aqueous solution; read-out: Half-life (T 1/2) (converted)
Procedure: These values were determined by the method of Woodward et al, J. Am. Chem. Soc., 102, 2042 (1980)

SMILES	MIC [1] [µg/mL]	MIC [2] [µg/mL]	MIC [3] [µg/mL]	half-life at 100 µM [4] [h]
C[C@@H](O)[C@H]1C(=O)N2C(C(=O)O)=C(SCCC#N)[C@H](CCSCCN)[C@H]12 [Example 131, (4R,5S,6S)-4-(2"-(2-Aminoethylthio)ethyl]-3-[(2-cyanoethylthio]-6-[(1'R)-1'-hydroxyethy)]-7-oxo-1-azabicyclo-[3.2.0]-hept-2-ene-2-carboxylic acid]	0.13 (≈ 0.337 µM)	2 (≈ 5.19 µM)	0.25 (≈ 0.648 µM)	46
C[C@@H](O)[C@H]1C(=O)N2C(C(=O)O)=C(SCCC#N)[C@H](CCN(C)CCC#N)[C@H]12 [Example 124, (4R,5S,6S)-3-[(2-Cyanoethyl)thio]-4-[2"-[N,N-(2-cyanoethyl)methylamino]ethy!]-6-[(1'R)-1'-hydroxyethyl]-7-oxo-1-azabicyclo[3.2.0]hept-2-ene-2-carboxylic acid]	0.03 (≈ 0.0764 µM)	2 (≈ 5.1 µM)	0.016 (≈ 0.0408 µM)	21
C[C@@H](O)[C@H]1C(=O)N2C(C(=O)O)=C(SCCC#N)[C@H](CCN3CCN(C)CC3)[C@H]12 [Example 126, (4R,5S,6S)-3-[(2-Cyanoethyl)thio]-6-[(1'R)-1'-hydroxyethyl]-4-[2"(4-methylpiperazine-1-yl)ethyl]-7-oxo-1-azabicyclo[3.2.0]hept-2-ene-2-carboxylic acid]	0.008 (≈ 0.0196 µM)	2 (≈ 4.9 µM)	0.016 (≈ 0.0392 µM)	47
C[C@@H](O)[C@H]1C(=O)N2C(C(=O)O)=C(SCCN3CCCC3)[C@H](CCCNC(=N)N)[C@H]12 [Example 127, (4R,5S,6S)-4-(3"-Guanidinopropyl)-6-[(1'R)-1'-hydroxyethyl]3-([2-(1-pyrrolidinyl)ethyllthio)-7-oxo-1-azabicyclo[3.2.0]-hept-2-ene-2-carboxylic acid, acetic acid salt]	0.13	1	0.06	31
CNCCC[C@H]1C(SCCC#N)=C(C(=O)O)N2C(=O)[C@H]([C@@H](C)O)[C@@H]12 [Example 154, (4R,5S,6S)-3-[(2-Cyanoethyl]thio]-6-[(1'R]-1'-hydroxyethyl]-4-(3"-N-methylaminopropyl)-7-oxo-1-azabicyclo[3.2.0]hept-2-ene-2-carboxylic acid]	0.25 (≈ 0.707 µM)	1 (≈ 2.83 µM)	0.5 (≈ 1.41 µM)	79
C[C@@H](O)[C@H]1C(=O)N2C(C(=O)[O-])=C(SCCC#N)[C@H](CC[n+]3ccccc3)[C@H]12 [Example 136, (4R,5S,6S)-3-[(2-Cyanoethyl)thio]-6-[(1'R)-1'-hydroxyethyl]-4-[2"-(1-pyridinium)ethyl]7-oxo-1-azabicyclo-[3.2.0]hept-2-ene-2-carboxylate]	0.007 (≈ 0.0181 µM)	4 (≈ 10.3 µM)	0.015 (≈ 0.0387 µM)	17
C[C@@H](O)[C@H]1C(=O)N2C(C(=O)O)=C(SCCC#N)[C@H](CCCN)[C@H]12 [Example 41, (4R-5S,6S)-4-(3"-Aminopropyl)-3-[(2-cyanoethy!)thio]-6-[(1'R)-1'-hydroxyethyl]-7-oxo-1-azabicyclo[3.2.0]hept-2-ene-2-carboxylic acid]	0.008 (≈ 0.0236 µM)	0.5 (≈ 1.47 µM)	0.25 (≈ 0.737 µM)	70
C[C@@H](O)[C@H]1C(=O)N2C(C(=O)O)=C(SCCCC#N)[C@H](CCN)[C@H]12 [Example 47, (4R,5S,6S)-4-(2"-Aminoethyl)-3-[(3-cyanopropyl)thio]-6-[(1'R)-l'-hydroxyethyl]-7-oxo-1-azabicyclo[3.2.0]hept-2-ene-2-carboxylic acid]	0.03 (≈ 0.0884 µM)	1 (≈ 2.95 µM)	0.5 (≈ 1.47 µM)	2.5
C[C@@H](O)[C@H]1C(=O)N2C(C(=O)O)=C(SCCC#N)[C@H](CCN)[C@H]12 [Example 36, (4R,5S,6S)-4-(2"-Aminoethyl)-3-[(2-cyanoethyl)thio]-6-[(1'R)-1'-hydroxyethyl]-7-oxo-1-azabicyclo[3.2.0]hept-2-ene-2-carboxylic acid]	0.008 (≈ 0.0246 µM)	0.25 (≈ 0.768 µM)	0.13 (≈ 0.4 µM)	3.8
C[C@@H](O)[C@H]1C(=O)N2C(C(=O)O)=C(SCc3ccncc3)[C@H](CCCN)[C@H]12 [Example 44]	0.03 (≈ 0.0795 µM)	8 (≈ 21.2 µM)	0.03 (≈ 0.0795 µM)	89
C[C@@H](O)[C@H]1C(=O)N2C(C(=O)O)=C(SCCOC(N)=O)[C@H](CCCCNC(=N)N)[C@H]12 [Example 100, (4R.5S,6S)-3-[(2-Carbamoyloxyethyl)thio)-4-(4"-guanidinobutyl)-6-[(1'R)-1'-hydroxyethyl]-7-oxo-1-azabicyclo-[3.2.0]-hept-2-ene-2-carboxylic acid]	0.008 (≈ 0.0186 µM)	2 (≈ 4.66 µM)	0.25 (≈ 0.582 µM)	180
C[C@@H](O)[C@H]1C(=O)N2C(C(=O)O)=C(SCCC#N)[C@H](CCNC(=N)N)[C@H]12 [Example 73, (4R,5S,6S)-3-[(2-Cyanoethyl)thio]-4-(2"-guanidinoethyl)-6-[(1'R)-1'-hydroxyethyl]-7-oxo-1-azabicyclo[3.2.0]-hept-2-ene-2-carboxylic acid]	0.008 (≈ 0.0218 µM)	0.25 (≈ 0.68 µM)	0.03 (≈ 0.0816 µM)	37
C[C@@H](O)[C@H]1C(=O)N2C(C(=O)O)=C(SCCO)[C@H](CCCNC=N)[C@H]12 [Example 32, (4R,5S,6S)-4-[3"-[N-Formimidoyl)aminopropyl]-6-[(1'R)-1'-hydroxyethyl]-3-[(2-hydroxyethyl)thio]-7-oxo-1-azabicyclo [3.2.0]hept-2-ene-2-carboxylic acid]	0.004 (≈ 0.0112 µM)	0.25 (≈ 0.699 µM)	0.25 (≈ 0.699 µM)	76
C[C@@H](O)[C@H]1C(=O)N2C(C(=O)O)=C(SCc3cccnc3)[C@H](CCN)[C@H]12 [Example 24, (4R,5S,6S)-4-(2"-Aminoethyl)-6-[(1'R)-1'-hydroxyethyl]-3-[(pyridin-3-yl)methyithio]-7-oxo-1-azabicyclo[3.2.0]-hept-2-ene-2-carboxylic acid]	0.016 (≈ 0.044 µM)	1 (≈ 2.75 µM)	0.13 (≈ 0.358 µM)	3.5
C[C@@H](O)[C@H]1C(=O)N2C(C(=O)O)=C(SCCN)[C@H](CCCN)[C@H]12 [Example 117, (4R,5S,6S)-4-(3"-Aminopropyl)-3-[(2-aminoethyl)thio]-6-[(1'R)-1'-hydroxyethyl]-7-oxo-1-azabicyclo[3.2.0]hept-2-ene-2-carboxylic acid, acetic acid_salt]	0.13	0.25	0.13	33
C[C@@H](O)[C@H]1C(=O)N2C(C(=O)O)=C(SCCC#N)[C@H](CCN3CCCC3)[C@H]12 [Example 63, (4R,5S,6S)-3-[(2-cyanoethyl)thio]-6-[(1'R)-1'-hydroxyethyl]-4-[2"-(1-pyrrolidinyl)-ethyl]-7-oxo-1-azabicyclo[3.2.0]hept-2-ene-2-carboxylic acid]	0.016 (≈ 0.0422 µM)	1 (≈ 2.64 µM)	0.008 (≈ 0.0211 µM)	18
C[C@@H](O)[C@H]1C(=O)N2C(C(=O)O)=C(SCc3csnn3)[C@H](CCNC(=N)N)[C@H]12 [Example 40, (4R,5S.6S)-4-(2"-Guanidinoethyl)-6-[(1'R)-1'-hydroxyethyl]-3-[(1,2.3-thiadiazol-4-yl)methyithio]-7-oxo-1-azabicyclo-[3.2.0]hept-2-ene-2-carboxylic acid]	0.008 (≈ 0.0194 µM)	1 (≈ 2.42 µM)	0.06 (≈ 0.145 µM)	32.5
C[C@@H](O)[C@H]1C(=O)N2C(C(=O)O)=C(SCc3ccccn3)[C@H](CCN)[C@H]12 [Example 3, (4R,5S,6S)-4-(2"-Aminoethyl)-6-[(1'R)-1'-hydroxyethyl]-3-[(pyridin-2-yl)methylthio]-7-oxo-1-azabicyclo-[3.2.0]-hept-2-ene-2-carboxylic acid]	0.016 (≈ 0.044 µM)	2 (≈ 5.5 µM)	0.13 (≈ 0.358 µM)	3.2
C[C@@H](O)[C@H]1C(=O)N2C(C(=O)O)=C(SCc3cn(C)nn3)[C@H](CCCNC=N)[C@H]12 [Example 94, (4R.5S,6S)-4-[3"-(N-Formimidoyi)aminopropyi]-6-[(1'R)-1'-hydroxyethyl]-3-[(1-methyl-1,2,3-triazol-4-yl)-methylthio]-7-oxo-1-azabicyclo[3.2.0]hept-ene-2-carboxylic acid]	0.008 (≈ 0.0196 µM)	8 (≈ 19.6 µM)	0.06 (≈ 0.147 µM)	88
C[C@@H](O)[C@H]1C(=O)N2C(C(=O)O)=C(SCCNC(=N)N)[C@H](CCNC(=N)N)[C@H]12 [Example 135, (4R,5S,6S)-4-(2"-Guanidinoethyl)-3-[(2-guanidinoethyl)-thio]-6-[(1'R)-1'-hydroxyethyl]-7-oxo-1-azabicyclo-[3.2.0]hept-2-ene-2-carboxylic acid, acetic acid salt]	0.015	0.06	0.03	37
C[C@@H](O)[C@H]1C(=O)N2C(C(=O)O)=C(SCCC#N)[C@H](CCCCCN)[C@H]12 [Example 121]	0.004 (≈ 0.0109 µM)	1 (≈ 2.72 µM)	0.13 (≈ 0.354 µM)	136
